ChEMBL document CHEMBL4513101, “Naegleria gruberi Pathogen Box compounds screening” (2021)
Active and inactive are the calls of the source. Cut-off read from the data, not from the text of the source: active = inhibition of 80% or more and inactive = less.

System: Naegleria gruberi
Experiment: microbe, parasite or virus in culture
Assay type: functional
Conditions: NEG-M, CONC 10 uM
Description: Growth inhibiting activity of Naegleria gruberi in vitro

`Cc1cccc(Cn2ccc(NC(=O)c3ccc4c(c3)OCO4)n2)c1` was tested, and the inhibition at 10 µM was 59.7% (not active).
With `Nc1nc(N)c2c3c(sc2n1)CN(Cc1ccccc1)CC3` the inhibition at 10 µM was 2.1% (not active).
In the case of `c1ccc2c(c1)CN(CC1CC1)CC1(CCN(Cc3c[nH]c4cnccc34)CC1)O2`, the inhibition at 10 µM is reported as 4.4% (not active).
In the case of `CCS(=O)(=O)N(Cc1ccco1)Cc1cc2ccc(C)cc2nc1O`, the inhibition at 10 µM is reported as 0% (not active).
For `Nc1nccc2ccc(-c3ccc4nccn4c3)cc12`, the inhibition at 10 µM was 8.2% (not active).
`CC(=O)N(CCN(C(=O)c1ccc(F)cc1)c1ccccc1)c1ccccc1` was tested, and the inhibition at 10 µM was 21.3% (not active).
For `Cc1cc(C)c2cc(C(=O)NC3CCCCCCC3)[nH]c2c1`, the inhibition at 10 µM was 30.2% (not active).
In the case of `COc1ccc2nc(C)cc(OCC(=O)NCc3ccccc3)c2c1`, the inhibition at 10 µM is reported as 41.1% (not active).
For `COCC(C)NC(=O)CSc1ncnc2sc(-c3ccccc3)cc12` (stereo unspecified), the inhibition at 10 µM was 45.7% (not active).
With `CN1CCN(CCCOc2ncc(Nc3ncc(-c4ccc(C(F)(F)F)c(F)c4)nc3C(N)=O)cn2)CC1` the inhibition at 10 µM was 12.9% (not active).
With `O=C(NC1CC1)c1ccc(CSCc2ccccc2Cl)o1` the inhibition at 10 µM was 5.6% (not active).
With `Cc1cc(Cl)c(S(=O)(=O)N2CCCC2)cc1OCC(=O)NC1CCCCC1` the inhibition at 10 µM was 11% (not active).
In the case of `CC(C)(C)C(=O)N(CCCCCCN1C[C@H](O)[C@@H](O)[C@H](O)[C@H]1CO)C1CCCCCC1`, the inhibition at 10 µM is reported as 0.1% (not active).
In the case of `c1ccc(Oc2ccc(-c3cc(N4CCNCC4)[nH]n3)cc2)cc1`, the inhibition at 10 µM is reported as 0% (not active).
For `Cc1cnc(N2CCN[C@@H](Cc3ccccc3)C2)nc1Oc1ccc(-n2ccnc2)cc1`, the inhibition at 10 µM was 9.8% (not active).
With `CCN(CC)CCCN1CCN(C(=O)c2cccc(-c3noc(C(F)(F)F)n3)c2)CC1` the inhibition at 10 µM was 13% (not active).
For `CC1CS(=O)(=O)CCN1/N=C/c1ccc([N+](=O)[O-])o1` (stereo unspecified) [NIFURTIMOX], the inhibition at 10 µM was 11.1% (not active).
In the case of `CCOc1ccc2cc(-c3nn(C(C)(C)C)c(N)c3C(N)=O)cnc2c1`, the inhibition at 10 µM is reported as 92.5% (active).
In the case of `O=C(C1CCN(c2cc(-n3cccc3)ncn2)CC1)N1CCc2ccccc2C1`, the inhibition at 10 µM is reported as 13.5% (not active).
In the case of `OCCc1ccc(Nc2nccc(-c3nnc4ccccn34)n2)cc1`, the inhibition at 10 µM is reported as 18.7% (not active).
`COC(=O)Nc1nc2cc(C(=O)c3ccccc3)ccc2[nH]1` [MEBENDAZOLE] was tested, and the inhibition at 10 µM was 29.8% (not active).
`CCCn1c(NC(=O)c2ccc3ccccc3n2)nc2ccccc21` was tested, and the inhibition at 10 µM was 22.6% (not active).
In the case of `Cc1ccc(S(=O)(=O)Nc2ccc(CN3CCN(C(=O)c4cccc(C#N)c4)CC3)cc2)cc1`, the inhibition at 10 µM is reported as 19.9% (not active).
In the case of `O=C(NC1=NCCS1)c1sc2cc(F)ccc2c1Cl`, the inhibition at 10 µM is reported as 34.6% (not active).
For `CC(C)NCC(=O)Nc1cccc(C(=O)Nc2cccc(C(F)(F)F)c2)c1`, the inhibition at 10 µM was 4.8% (not active).
`CC(C)(C)n1nc(Cc2cccc3ccccc23)c2c(N)ncnc21` was tested, and the inhibition at 10 µM was 13.8% (not active).
In the case of `CC(C(=O)Nc1ccc2oc(-c3ccncc3)nc2c1)c1ccccc1` (stereo unspecified), the inhibition at 10 µM is reported as 48.6% (not active).
`O=C(NC1CCCCC1)N1CCN(Cc2ccc3c(c2)OCO3)CC1` was tested, and the inhibition at 10 µM was 31.3% (not active).
`O=C(Nc1ccc(F)c(-c2nc3cc(-c4ccccc4)cnc3[nH]2)c1)N1CCCC1` was tested, and the inhibition at 10 µM was 49.5% (not active).
For `Clc1cccc(CO[C@H]2CCc3ccccc3[C@@H]2n2ccnn2)c1`, the inhibition at 10 µM was 12.6% (not active).
For `CCCCc1ccc(C(=O)Nc2nccc3ccccc23)nc1`, the inhibition at 10 µM was 43.2% (not active).
With `Cc1cc(C)n(-c2ccc(NC(=O)C3CCN(Cc4cnc(C)s4)CC3)cc2)n1` the inhibition at 10 µM was 6.1% (not active).
`Nc1nc2cc(-c3cncc(Oc4ccc(F)cc4)c3)ccc2[nH]1` was tested, and the inhibition at 10 µM was 35.5% (not active).
With `Cc1cc(NCCc2ccccc2)nc(NC(=N)Nc2ccc(Cl)cc2)n1` the inhibition at 10 µM was 19.6% (not active).
In the case of `COc1ccc(S(=O)(=O)Nc2ccc(CN3CCN(C(=O)c4cccc(C#N)c4)CC3)cc2)cc1`, the inhibition at 10 µM is reported as 18.8% (not active).
In the case of `O=C(NCCN1CCCC1)c1cc(NCCN2CCOCC2)nc2ccc(Cl)cc12`, the inhibition at 10 µM is reported as 11% (not active).
`COc1cccc(OCC(=O)c2ccc(Br)cc2)c1` was tested, and the inhibition at 10 µM was 33.4% (not active).
With `COc1ccc(C2=NCCN2)cc1-c1cn(-c2cccc(C3=NCCN3)c2)nn1` the inhibition at 10 µM was 21.7% (not active).
With `COc1ccc(CN2CCOc3ccc(C(C)(O)CN(C)C)cc3C2)cc1C` (stereo unspecified) the inhibition at 10 µM was 26.3% (not active).
`COc1cccc(-c2nc3c(N4CCCC4)cccc3n2CC2CCCN2)n1` (stereo unspecified) was tested, and the inhibition at 10 µM was 51.5% (not active).
For `CN1CCN(S(=O)(=O)c2ccc(-c3ccc4c(Nc5ncc(Cl)cn5)ccnc4c3)cc2)CC1`, the inhibition at 10 µM was 43.6% (not active).
`O=C(Nc1ccc(N2CCNCC2)cc1)c1ccn2ncc(-c3cccc(Cl)c3)c2n1` was tested, and the inhibition at 10 µM was 18.8% (not active).
`CS(=O)(=O)N1CCC(Cn2nc(Cc3cccc4ccccc34)c3c(N)ncnc32)CC1` was tested, and the inhibition at 10 µM was 30.6% (not active).
For `Cc1nn(C(=O)Nc2cccc(C(F)(F)F)c2)c(C)c1Sc1ncccn1`, the inhibition at 10 µM was 16.7% (not active).
In the case of `Clc1ccc(Cl)c(CO[C@H]2CCCC[C@@H]2n2ccnc2)c1`, the inhibition at 10 µM is reported as 35.1% (not active).
`O=C1O[C@@H](COc2ccon2)CN1c1cc(F)c(C2=CCN(Cc3ccccc3)CC2)c(F)c1` was tested, and the inhibition at 10 µM was 4.4% (not active).
`Cc1ccc(NC(=O)c2nc[nH]c2C(=O)Nc2nc3ccccc3[nH]2)c(C)c1` was tested, and the inhibition at 10 µM was 22.8% (not active).
`c1ccc(-c2cc(N3CCCCC3)c3ccccc3n2)nc1` was tested, and the inhibition at 10 µM was 20.7% (not active).
For `Cc1nnc(NCc2cccc(Cl)c2)c2ccccc12`, the inhibition at 10 µM was 38.4% (not active).
For `c1cc(C2=NCCN2)cc(-c2cc(-c3ccc(C4=NCCN4)cc3)no2)c1`, the inhibition at 10 µM was 24.2% (not active).
With `FC(F)(F)c1cnc(Sc2nnc(-c3ccncc3)o2)c(Cl)c1` the inhibition at 10 µM was 42.8% (not active).
With `O=C(Nc1cccnc1)c1c(O)c2cccc3c2n(c1=O)CC3` the inhibition at 10 µM was 40.3% (not active).
With `C[C@H]1COc2c(N3CCN(C)CC3)c(F)cc3c(=O)c(C(=O)O)cn1c23` [LEVOFLOXACIN] the inhibition at 10 µM was 0% (not active).
In the case of `O=C(c1[nH]nc2c1CCCC2)N1CCN(Cc2ccc3c(c2)OCO3)CC1`, the inhibition at 10 µM is reported as 29.5% (not active).
In the case of `COc1ccccc1C(C)NCC(=O)Nc1cc(C(F)(F)F)ccc1Cl` (stereo unspecified), the inhibition at 10 µM is reported as 49.5% (not active).
In the case of `Cc1cc(Cl)ccc1NC(=O)CCc1ccc(S(=O)(=O)NCC(C)C)cc1`, the inhibition at 10 µM is reported as 13.9% (not active).
`CC1CC1C(=O)NC1CCN(CC2(c3ccccc3)CCCCC2)CC1` (stereo unspecified) was tested, and the inhibition at 10 µM was 43.8% (not active).
For `Cn1c(=O)c2c(S(C)(=O)=O)snc2n(C)c1=O`, the inhibition at 10 µM was 72.3% (not active).
`CC(C)(C)n1nc(Cc2ccc(F)c(Cl)c2)c2c(N)ncnc21` was tested, and the inhibition at 10 µM was 32% (not active).
In the case of `O=C([C@@H](c1ccc(Cl)cc1)c1cccnc1)N1CCN(c2ccc(C(F)(F)F)cc2)CC1`, the inhibition at 10 µM is reported as 75.6% (not active).
With `CCc1nc2ccccc2n1CC(O)COc1cc(C)ccc1Cl` (stereo unspecified) the inhibition at 10 µM was 25.3% (not active).
For `CCc1c(C)nc(-n2nc(C)cc2NC(=O)c2ccccc2SC)[nH]c1=O`, the inhibition at 10 µM was 17.4% (not active).
`CC1=Nc2ccc(Cl)cc2C(O)(c2ccc(C)cc2)N1CCN1CCCCC1` (stereo unspecified) was tested, and the inhibition at 10 µM was 31.1% (not active).
`NC(=O)c1cc(Br)ccc1OCCOc1ccccc1` was tested, and the inhibition at 10 µM was 36.1% (not active).
In the case of `CC(C)n1ncc2c(C(=O)NCC(c3cccs3)N3CCOCC3)cc(-c3ccccc3)nc21` (stereo unspecified), the inhibition at 10 µM is reported as 48.6% (not active).
In the case of `Oc1c(I)cc(I)c2cccnc12` [IODOQUINOL], the inhibition at 10 µM is reported as 51.6% (not active).
`COc1ccc(-c2onc(C(F)(F)F)c2-c2ccc(Cl)cc2)c(O)c1` was tested, and the inhibition at 10 µM was 45.5% (not active).
For `CS(=O)(=O)c1ccc(C(=O)N(CC2CCCO2)c2nc3ccccc3s2)cc1[N+](=O)[O-]` (stereo unspecified), the inhibition at 10 µM was 58.7% (not active).
`Cc1cc(C(=O)Nc2ccc(-c3ccccc3)cc2)no1` was tested, and the inhibition at 10 µM was 35.7% (not active).
In the case of `CCc1nc2ccc(Cl)cn2c1C(=O)NCc1ccc(N2CCC(c3ccc(OC(F)(F)F)cc3)CC2)cc1` [TELACEBEC], the inhibition at 10 µM is reported as 42.4% (not active).
With `Cc1nn(Cc2ccccc2)c(Cl)c1C(=O)NC1CCCCCC1` the inhibition at 10 µM was 36.1% (not active).
In the case of `O=C(c1ccc(NCCO)cc1)C1C[C@H]1c1ccc(Cl)cc1` (stereo partly specified), the inhibition at 10 µM is reported as 28.7% (not active).
For `CCC(=O)Nc1ccccc1C(=O)Nc1ccccn1`, the inhibition at 10 µM was 35.7% (not active).
`Cc1ccc(NC(=O)c2cc(S(=O)(=O)NC(C)(C)C)ccc2C)nc1` was tested, and the inhibition at 10 µM was 34.7% (not active).
In the case of `CN1CCC(NCc2cccc(-c3ccc(S(=O)(=O)NCc4ccccc4)cc3)c2)CC1`, the inhibition at 10 µM is reported as 14.4% (not active).
With `COC(=O)c1cccc2oc(-c3cccc(OC)c3NC(=O)c3cc(-c4ccccc4)on3)nc12` the inhibition at 10 µM was 69.8% (not active).
With `CCCCN(CCCC)c1c(C#N)cc(S(=O)(=O)Nc2ccccc2)cc1C#N` the inhibition at 10 µM was 23.9% (not active).
With `Nc1ncc(Br)cc1-c1nc2cc(Cl)cnc2[nH]1` the inhibition at 10 µM was 15.3% (not active).
With `COc1ccc(Nc2ccccc2NC(=O)c2ccc(O)nc2)cc1` the inhibition at 10 µM was 24.1% (not active).
`CN(C)CCNC(=O)N1CCCN(c2ncnc3cc(-c4ccccc4)sc23)CC1` was tested, and the inhibition at 10 µM was 29.4% (not active).
For `CNC(=O)c1nn(C)c2c1C(C)(C)Cc1cnc(Nc3ccc(N4CCN(C)CC4)cc3)nc1-2` [MILCICLIB], the inhibition at 10 µM was 18.3% (not active).
In the case of `Cc1cccc(-c2nc(Nc3ccncn3)c3sccc3n2)n1`, the inhibition at 10 µM is reported as 34% (not active).
In the case of `COC(=O)c1c(NC(=O)c2cc3ccccc3oc2=O)sc2c1CCN(Cc1ccccc1)C2`, the inhibition at 10 µM is reported as 17.2% (not active).
For `N#Cc1ccc(-c2ccc(OCC(N)=O)cc2)cc1`, the inhibition at 10 µM was 33.5% (not active).
With `COc1cccc(-n2nnnc2S(=O)(=O)Cc2ccccc2)c1` the inhibition at 10 µM was 85.8% (active).
In the case of `Cc1cc(Nc2ccncc2)n2nc(C)c(-c3ccccc3Cl)c2n1`, the inhibition at 10 µM is reported as 27.7% (not active).
For `CCCCS(=O)(=O)Nc1ccc2cnn(C)c2c1`, the inhibition at 10 µM was 17.4% (not active).
`COc1cc(OC)cc(C(=O)NCC2Cc3cc(Cl)cc(-c4ccncc4)c3O2)c1` (stereo unspecified) was tested, and the inhibition at 10 µM was 20.9% (not active).
For `O=C(NCc1nnc2n1CCCCC2)c1ccc(-c2ccc(F)cc2)o1`, the inhibition at 10 µM was 29.3% (not active).
`COc1cccc2c(C)nc(N=C(N)N)nc12` was tested, and the inhibition at 10 µM was 24.2% (not active).
`CCc1nc2ccc(C(=O)NCc3ccc4c(c3)OCO4)cn2c1N(C)Cc1cccs1` was tested, and the inhibition at 10 µM was 36% (not active).
